Source: patent US20060069132A1, “Azolecarboxamide herbicides” (priority 2004, published 2006)

Legend:
Test in all cases: Test E pre-/postemergence herbicide test
common groundsel = type: in vivo, Senecio vulgaris
Summary of the method: (§1)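 Greenhouse response scored visually 12 to 14 days after treatment versus controls, 0 meaning no effect and 100 complete control. Compounds, formulated with surfactant in a non-phytotoxic solvent blend, were sprayed either preemergence after sowing or postemergence at the 1- to 4-leaf stage (2 to 18 cm).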

common purslane = type: in vivo, Portulaca oleracea
Summary of the method: as §1

johnsongrass = type: in vivo, Sorghum halepense
Summary of the method: as §1

green foxtail = type: in vivo, Setaria viridis
Summary of the method: as §1

purple nutsedge = type: in vivo, Cyperus rotundus
Summary of the method: as §1

barnyardgrass = type: in vivo, Echinochloa crus-galli
Summary of the method: as §1

field bindweed = type: in vivo, Convolvulus arvensis
Summary of the method: as §1

goosegrass = type: in vivo, Eleusine indica
Summary of the method: as §1

mustard = type: in vivo, Brassica nigra
Summary of the method: as §1

pitted morningglory = type: in vivo, Ipomoea lacunosa
Summary of the method: as §1

southern sandbur = type: in vivo, Cenchrus echinatus
Summary of the method: as §1

itchgrass = type: in vivo, Rottboellia cochinchinensis
Summary of the method: as §1

Italian ryegrass = type: in vivo, Lolium multiflorum
Summary of the method: as §1

[1] = Postemergence, 500 g ai/ha, scale 0 to 100
[2] = Postemergence, 250 g ai/ha, scale 0 to 100
[3] = Preemergence, 62 g ai/ha, scale 0 to 100
[4] = Preemergence, 125 g ai/ha, scale 0 (no effect) to 100 (complete control)
[5] = Preemergence, 500 g ai/ha, scale 0 (no effect) to 100 (complete control)
[6] = postemergence, 125 g ai/ha, scale 0 to 100
[7] = postemergence, 62 g ai/ha, scale 0 to 100
[8] = Preemergence, 250 g ai/ha, scale 0 (no effect) to 100 (complete control)

CCn1nc(C(C)(C)C)cc1C(=O)Nc1cc(C(=O)N(C)C)ccc1F [Compound 6, N-[5-[(dimethylamino)carbonyl]-2-fluorophenyl]-3-(1,1-dimethylethyl)-1-ethyl-1H-pyrazole-5-carboxamide]
95: Plant response rating, Groundsel (common groundsel; [6]) | Plant response rating, Johnsongrass (johnsongrass; [6]) | Plant response rating, Foxtail, Green (green foxtail; [3]) | Plant response rating, Foxtail, Green (green foxtail; [4]) | Plant response rating, Nutsedge, Purple (purple nutsedge; [6]) | Plant response rating, Barnyardgrass (barnyardgrass; [2]) | Plant response rating, Barnyardgrass (barnyardgrass; [4]) | Plant response rating, Barnyardgrass (barnyardgrass; [8]) | Plant response rating, Bindweed, Field (field bindweed; [6]) | Plant response rating, Goosegrass (goosegrass; [4]) | Plant response rating, Black Mustard (mustard; [7]) | Plant response rating, Sandbur (southern sandbur; [6]) | Plant response rating, Itchgrass (itchgrass; [1]) | Plant response rating, Itchgrass (itchgrass; [2]) | Plant response rating, Itchgrass (itchgrass; [4]) | Plant response rating, Itchgrass (itchgrass; [5]) | Plant response rating, Ryegrass, Italian (Italian ryegrass; [4]) | Plant response rating, Ryegrass, Italian (Italian ryegrass; [6])
98: Plant response rating, Johnsongrass (johnsongrass; [1]) | Plant response rating, Johnsongrass (johnsongrass; [2]) | Plant response rating, Foxtail, Green (green foxtail; [1]) | Plant response rating, Foxtail, Green (green foxtail; [2]) | Plant response rating, Barnyardgrass (barnyardgrass; [1]) | Plant response rating, Goosegrass (goosegrass; [1]) | Plant response rating, Goosegrass (goosegrass; [2]) | Plant response rating, Goosegrass (goosegrass; [6]) | Plant response rating, Ryegrass, Italian (Italian ryegrass; [1]) | Plant response rating, Ryegrass, Italian (Italian ryegrass; [2])
60: Plant response rating, Nutsedge, Purple (purple nutsedge; [3]) | Plant response rating, Bindweed, Field (field bindweed; [4]) | Plant response rating, Morningglory (pitted morningglory; [2])
0: Plant response rating, Morningglory (pitted morningglory; [7])
10: Plant response rating, Bindweed, Field (field bindweed; [7]) | Plant response rating, Morningglory (pitted morningglory; [6])
100: Plant response rating, Groundsel (common groundsel; [1]) | Plant response rating, Groundsel (common groundsel; [2]) | Plant response rating, Groundsel (common groundsel; [3]) | Plant response rating, Groundsel (common groundsel; [4]) | Plant response rating, Groundsel (common groundsel; [5]) | Plant response rating, Purslane (common purslane; [1]) | Plant response rating, Purslane (common purslane; [2]) | Plant response rating, Purslane (common purslane; [3]) | Plant response rating, Purslane (common purslane; [4]) | Plant response rating, Purslane (common purslane; [8]) | Plant response rating, Purslane (common purslane; [5]) | Plant response rating, Johnsongrass (johnsongrass; [5]) | Plant response rating, Foxtail, Green (green foxtail; [5]) | Plant response rating, Nutsedge, Purple (purple nutsedge; [4]) | Plant response rating, Nutsedge, Purple (purple nutsedge; [8]) | Plant response rating, Nutsedge, Purple (purple nutsedge; [5]) | Plant response rating, Barnyardgrass (barnyardgrass; [5]) | Plant response rating, Bindweed, Field (field bindweed; [1]) | Plant response rating, Bindweed, Field (field bindweed; [2]) | Plant response rating, Bindweed, Field (field bindweed; [5]) | Plant response rating, Goosegrass (goosegrass; [5]) | Plant response rating, Black Mustard (mustard; [1]) | Plant response rating, Black Mustard (mustard; [2]) | Plant response rating, Black Mustard (mustard; [3]) | Plant response rating, Black Mustard (mustard; [4]) | Plant response rating, Black Mustard (mustard; [8]) | Plant response rating, Black Mustard (mustard; [5]) | Plant response rating, Black Mustard (mustard; [6]) | Plant response rating, Morningglory (pitted morningglory; [5]) | Plant response rating, Sandbur (southern sandbur; [1]) | Plant response rating, Sandbur (southern sandbur; [2]) | Plant response rating, Sandbur (southern sandbur; [4]) | Plant response rating, Sandbur (southern sandbur; [5]) | Plant response rating, Ryegrass, Italian (Italian ryegrass; [5])
75: Plant response rating, Purslane (common purslane; [7]) | Plant response rating, Nutsedge, Purple (purple nutsedge; [7])
20: Plant response rating, Groundsel (common groundsel; [7]) | Plant response rating, Morningglory (pitted morningglory; [3])
70: Plant response rating, Morningglory (pitted morningglory; [4])
30: Plant response rating, Bindweed, Field (field bindweed; [3])
80: Plant response rating, Foxtail, Green (green foxtail; [7]) | Plant response rating, Barnyardgrass (barnyardgrass; [7]) | Plant response rating, Morningglory (pitted morningglory; [1]) | Plant response rating, Ryegrass, Italian (Italian ryegrass; [7])
90: Plant response rating, Purslane (common purslane; [6]) | Plant response rating, Johnsongrass (johnsongrass; [3]) | Plant response rating, Johnsongrass (johnsongrass; [4]) | Plant response rating, Johnsongrass (johnsongrass; [8]) | Plant response rating, Johnsongrass (johnsongrass; [7]) | Plant response rating, Foxtail, Green (green foxtail; [6]) | Plant response rating, Barnyardgrass (barnyardgrass; [3]) | Plant response rating, Barnyardgrass (barnyardgrass; [6]) | Plant response rating, Goosegrass (goosegrass; [7]) | Plant response rating, Itchgrass (itchgrass; [3]) | Plant response rating, Itchgrass (itchgrass; [6]) | Plant response rating, Itchgrass (itchgrass; [7]) | Plant response rating, Ryegrass, Italian (Italian ryegrass; [3])
85: Plant response rating, Goosegrass (goosegrass; [3]) | Plant response rating, Sandbur (southern sandbur; [3]) | Plant response rating, Sandbur (southern sandbur; [7])
